BindingDB's records for doi:10.7270/Q2222S6W (University of Pittsburgh, 2007)
Counter-ions that a name gives are not always drawn.

Biological target: Genome polyprotein (West Nile virus, UniProt P06935)
Assay: West Nile NS2B-NS3 proteinase blockers – biochemical, confirmation, dose response (AID 653)

Sequence of Genome polyprotein (P06935 1371-1501 limits assumed): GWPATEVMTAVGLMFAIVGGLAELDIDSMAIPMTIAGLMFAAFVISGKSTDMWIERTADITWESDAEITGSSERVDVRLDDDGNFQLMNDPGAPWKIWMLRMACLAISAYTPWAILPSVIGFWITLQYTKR
Sequence of Genome polyprotein (P06935 1502-2120 limits assumed): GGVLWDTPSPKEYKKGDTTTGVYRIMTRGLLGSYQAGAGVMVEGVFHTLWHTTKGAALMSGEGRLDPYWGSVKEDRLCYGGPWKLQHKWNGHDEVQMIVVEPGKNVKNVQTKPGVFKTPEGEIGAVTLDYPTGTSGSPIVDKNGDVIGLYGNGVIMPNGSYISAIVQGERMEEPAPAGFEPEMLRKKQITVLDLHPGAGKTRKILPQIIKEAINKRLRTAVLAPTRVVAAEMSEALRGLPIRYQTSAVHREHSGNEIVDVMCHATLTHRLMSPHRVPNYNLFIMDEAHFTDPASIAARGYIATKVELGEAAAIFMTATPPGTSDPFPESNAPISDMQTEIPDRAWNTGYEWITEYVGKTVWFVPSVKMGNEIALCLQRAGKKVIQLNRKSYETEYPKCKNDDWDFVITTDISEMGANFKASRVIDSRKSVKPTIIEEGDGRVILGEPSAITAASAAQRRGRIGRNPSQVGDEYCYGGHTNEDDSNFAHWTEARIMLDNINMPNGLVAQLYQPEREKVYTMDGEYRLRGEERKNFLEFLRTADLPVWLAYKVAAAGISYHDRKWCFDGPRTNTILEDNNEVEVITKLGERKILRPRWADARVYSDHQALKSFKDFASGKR

Q: For COc1ccc(C2CC(c3cccc(C)c3)n3ncnc3N2)cc1 (stereo not drawn) [5-(4-methoxyphenyl)-7-(3-methylphenyl)-1,5,6,7-tetrahydro-[1,2,4]triazolo[1,5-a]pyrimidine], which IC50 is on record?
A: > 50 µM

Q: Cc1ccccc1S(=O)(=O)Cc1ccc(C(=O)NCCCOC(C)C)o1 [5-[(2-methylphenyl)sulfonylmethyl]-N-(3-propan-2-yloxypropyl)-2-furancarboxamide] was tested. Which IC50 did it give?
A: > 50 µM

Q: Which IC50 does the source give for C=CCC1(CN2CCCCCC2=O)C(=O)NC(=O)NC1=O [5-[(2-oxidanylideneazepan-1-yl)methyl]-5-prop-2-enyl-1,3-diazinane-2,4,6-trione] here?
A: > 50 µM

Q: How did the IC50 turn out when COc1ccc(Br)cc1C=c1sc2nc(-c3ccco3)nn2c1=O [5-[(5-bromanyl-2-methoxy-phenyl)methylidene]-2-(furan-2-yl)-[1,3]thiazolo[3,2-b][1,2,4]triazol-6-one] was run?
A: > 50 µM

Q: With COC(=O)c1ccc(CSc2nnc(SCc3ccc(C(=O)OC)o3)s2)o1 [5-[[[5-[(5-carbomethoxy-2-furyl)methylthio]-1,3,4-thiadiazol-2-yl]thio]methyl]furan-2-carboxylic acid methyl ester] as the molecule, how does the IC50 read?
A: > 50 µM

Q: For Nc1cc(OC(=O)c2cccs2)nn1S(=O)(=O)c1ccc(F)cc1 [5-amino-1-[(4-fluorophenyl)sulfonyl]-1H-pyrazol-3-yl thiophene-2-carboxylate], which IC50 is on record?
A: 1.16 µM

Q: CCOC(=O)c1c(C)n(C)c2ccc(OC)c(NC(=O)CN3CCCCC3)c12 [5-methoxy-1,2-dimethyl-4-[(2-piperidinoacetyl)amino]indole-3-carboxylic acid ethyl ester] was tested. Which IC50 did it give?
A: > 50 µM

Q: Which IC50 does the source give for Cn1c2ccccc2c2nn(-c3ccccc3)c(=O)cc21 [5-methyl-2-phenyl-3-pyridazino[4,3-b]indolone] here?
A: > 50 µM

Q: For COc1ccc(-c2cn3ccsc3n2)cc1 [6-(4-methoxyphenyl)imidazo[2,1-b][1,3]thiazole], which IC50 is on record?
A: > 50 µM

Q: COc1ccc2c3c(cccc13)NN=C2C [6-Methoxy-3-methyl-1H-benzo[de]cinnoline] was tested. Which IC50 did it give?
A: 10.1 µM

Q: How did the IC50 turn out when Cc1csc2nc(CNC(=O)C3CC=CCC3C(=O)O)cn12 (stereo not drawn) [6-[(3-methylimidazo[2,1-b][1,3]thiazol-6-yl)methylcarbamoyl]cyclohex-3-ene-1-carboxylic acid] was run?
A: > 50 µM

Q: COc1cc(C2CC(C(F)(F)F)n3ncc(C(=O)O)c3N2)cc(OC)c1OC (stereo not drawn) [7-(trifluoromethyl)-5-(3,4,5-trimethoxyphenyl)-1,5,6,7-tetrahydropyrazolo[1,5-a]pyrimidine-3-carboxylic acid] was tested. Which IC50 did it give?
A: > 50 µM

Q: For Cc1oc2c(CN(C)C)c(O)ccc2c(=O)c1-c1ccc2ccccc2n1 [8-[(dimethylamino)methyl]-2-methyl-7-oxidanyl-3-quinolin-2-yl-chromen-4-one], which IC50 is on record?
A: > 50 µM

Q: Which IC50 does the source give for CN1CCN(CC(=O)N2c3ccccc3C(=O)Nc3cccnc32)CC1 [11-[(4-methylpiperazin-1-yl)acetyl]-5,11-dihydro-6H-pyrido[2,3-b][1,4]benzodiazepin-6-one] here?
A: > 50 µM

Q: With CCN1CCN(C(=O)C2c3cc(OC)c(OC)cc3C(=O)N3CCc4ccccc4C23)CC1 (stereo not drawn) [13-(4-ethylpiperazin-1-yl)carbonyl-10,11-dimethoxy-5,6,13,13a-tetrahydroisoquinolino[2,1-b]isoquinolin-8-one] as the molecule, how does the IC50 read?
A: > 50 µM

Q: How did the IC50 turn out when COc1cc(C=CC(=O)CC(=O)C=Cc2ccc(O)c(OC)c2)ccc1O [(1E,6E)-1,7-bis(4-hydroxy-3-methoxyphenyl)hepta-1,6-diene-3,5-dione] was run?
A: > 50 µM

Q: With Cc1nn(-c2ccccc2)c2sc(C(=O)OC3CCOC3=O)cc12 (stereo not drawn) [(2-oxidanylideneoxolan-3-yl) 3-methyl-1-phenyl-thieno[2,3-c]pyrazole-5-carboxylate] as the molecule, how does the IC50 read?
A: > 50 µM

Q: For CCCCc1oc2ccccc2c1C(=O)c1cc(I)c(OCCN(CC)CC)c(I)c1 [(2-{4-[(2-butyl-1-benzofuran-3-yl)carbonyl]-2,6-diiodophenoxy}ethyl)diethylamine], which IC50 is on record?
A: > 50 µM

Q: CN(C)/C=C1/Sc2ccccc2C1=O [(2E)-2-(dimethylaminomethylene)benzothiophen-3-one] was tested. Which IC50 did it give?
A: > 50 µM

Q: How did the IC50 turn out when CCCCOCCCNC(=O)N[C@@H](CC(C)C)C(=O)O [(2S)-2-(3-butoxypropylcarbamoylamino)-4-methyl-pentanoic acid] was run?
A: > 50 µM

Q: Which IC50 does the source give for CNC(=O)Oc1ccc2c(c1)[C@]1(C)CCN(C)[C@@H]1N2C [(3aS,8aR)-1,3a,8-trimethyl-1H,2H,3H,3aH,8H,8aH-pyrrolo[2,3-b]indol-5-yl N-methylcarbamate; 2-hydroxybenzoic acid] here?
A: > 50 µM

Q: How did the IC50 turn out when COP(=O)(OC)C(O)C(Cl)(Cl)Cl (stereo not drawn) [(+-)-Trichlorfon] was run?
A: > 50 µM

Q: N#[N+][CH-]C(=O)OCC(N)C(=O)O [(E)-1-[(2S)-2-amino-2-carboxy-ethoxy]-2-diazonio-ethenolate] was tested. Which IC50 did it give?
A: > 50 µM

Q: With COc1ccc(/C=C(/C#N)c2cccnc2)cc1OC [(E)-3-(3,4-dimethoxyphenyl)-2-(3-pyridinyl)-2-propenenitrile] as the molecule, how does the IC50 read?
A: > 50 µM

Q: How did the IC50 turn out when CCCCC[C@H](O)C=C[C@H]1C=CC(=O)[C@@H]1C/C=C\CCCC(=O)O [(Z)-7-[(1R,5S)-2-oxidanylidene-5-[(E,3S)-3-oxidanyloct-1-enyl]cyclopent-3-en-1-yl]hept-5-enoic acid] was run?
A: > 50 µM

Q: How did the IC50 turn out when CN(C)c1nc(N(C)C)nc(N(C)C)n1 [ALTRETAMINE] was run?
A: > 50 µM

Q: With CCCC(CCC)C(=O)OC1C[C@H]2CC[C@@H](C1)[N+]2(C)C (stereo partly drawn) [ANISOTROPINE METHYLBROMIDE] as the molecule, how does the IC50 read?
A: > 50 µM

Q: For COc1ccc(S(=O)(=O)n2nc(OC(=O)c3ccccc3)cc2N)cc1 [Benzoic acid 5-amino-1-(4-methoxy-benzenesulfonyl)-1H-pyrazol-3-yl ester], which IC50 is on record?
A: 0.105 µM

Q: CCn1nc(C(=O)O)c(=O)c2cc3c(cc21)OCO3 [CINOXACIN] was tested. Which IC50 did it give?
A: > 50 µM

Q: How did the IC50 turn out when CC[N+](C)(C)c1cccc(O)c1 [Edrophonium Chloride, 3] was run?
A: > 50 µM

Q: How did the IC50 turn out when O=C(c1ccco1)N(CCCN1CCOCC1)c1nc(-c2ccc(Cl)cc2)cs1 [Furan-2-carboxylic acid [4-(4-chloro-phenyl)-thiazol-2-yl]-(3-morpholin-4-yl-propyl)-amide] was run?
A: > 50 µM

Q: NS(=O)(=O)c1cc2c(cc1Cl)N=CNS2(=O)=O [MLS000028398] was tested. Which IC50 did it give?
A: > 50 µM

Q: With Cc1cccc(N(C)C(=S)Oc2ccc3ccccc3c2)c1 [MLS000028526] as the molecule, how does the IC50 read?
A: > 50 µM

Q: Which IC50 does the source give for CC(C)(S)[C@@H](N)C(=O)O [MLS000028669] here?
A: > 50 µM

Q: How did the IC50 turn out when CCC(=O)O[C@]1(C(=O)CCl)[C@@H](C)C[C@H]2[C@@H]3CCC4=CC(=O)C=C[C@]4(C)[C@@]3(F)[C@@H](O)C[C@@]21C [MLS000028708] was run?
A: > 50 µM

Q: For CCOc1ccccc1N(CC(=O)NC1CCCC1)C(=O)CCC(=O)Nc1cc(C)on1 [MLS000032086], which IC50 is on record?
A: > 50 µM

Q: With COc1ccccc1-n1c(C)nnc1SCC(=O)Nc1cc(C)cc(C)c1 [MLS000032151] as the molecule, how does the IC50 read?
A: > 50 µM

Q: How did the IC50 turn out when Cc1ccc(S(=O)(=O)n2nc(OC(=O)c3ccco3)cc2N)cc1 [MLS000033865] was run?
A: 14.4 µM

Q: COc1ccc(S(=O)(=O)n2nc(OC(=O)c3ccco3)cc2N)cc1 [MLS000033887] was tested. Which IC50 did it give?
A: 0.553 µM

Q: With CC(=O)Nc1nc2ccccc2n1CCOc1ccccc1Cl [MLS000034055] as the molecule, how does the IC50 read?
A: > 50 µM

Q: Which IC50 does the source give for Cc1ccc(OCC(=O)Nc2ccc(-c3nnc(-c4ccco4)o3)cc2)cc1 [MLS000039074] here?
A: > 50 µM

Q: For COc1ccc(C2C3=C(CC(C)(C)CC3=O)Oc3ncn4nc(-c5cccnc5)nc4c32)cc1OC (stereo not drawn) [MLS000040750], which IC50 is on record?
A: > 50 µM

Q: For CCn1c(SCC(=O)Nc2ccc3c(c2)c2ccccc2n3CC)nnc1-c1ccco1 [MLS000050867], which IC50 is on record?
A: 47.7 µM

Q: For CCS(=O)(=O)N1Cc2ccccc2CC1C(=O)N1CCN(c2cccc(C)c2C)CC1 (stereo not drawn) [MLS000053522], which IC50 is on record?
A: 38.6 µM

Q: CCN(CC(=O)Nc1ccccc1OC)C(=O)C1CC2C=CC1C2 (stereo not drawn) [MLS000053693] was tested. Which IC50 did it give?
A: > 50 µM

Q: With Cc1sc2nc3c4ccccc4c(NCc4ccco4)nn3c(=O)c2c1C [MLS000056809] as the molecule, how does the IC50 read?
A: > 50 µM

Q: How did the IC50 turn out when CCN(Cc1ccccc1)C(=O)c1ccccc1C [MLS000058902] was run?
A: > 50 µM

Q: For Cn1nnc2cc(C(=O)NC3CCCCC3)ccc21 [MLS000063766], which IC50 is on record?
A: > 50 µM

Q: How did the IC50 turn out when Nc1ccc(S(=O)(=O)Nc2ccccn2)cc1 [MLS000069725] was run?
A: > 50 µM

Q: Which IC50 does the source give for COc1ccc(OC)c(NS(=O)(=O)c2cccs2)c1 [MLS000070319] here?
A: > 50 µM

Q: Which IC50 does the source give for COc1ccc2nc(NC(=O)CSc3nc4cccnc4n3C)sc2c1 [MLS000072990] here?
A: > 50 µM

Q: Which IC50 does the source give for CCCn1c(SCC(=O)Nc2ccc3c(c2)OCCO3)nnc1-c1ccco1 [MLS000073448] here?
A: > 50 µM

Q: How did the IC50 turn out when COC(=O)c1[nH]c2cc(OC)ccc2c1NC(=O)c1ccc2c(c1)OCO2 [MLS000081144] was run?
A: > 50 µM

Q: For CCN1CCN(CNC(=O)c2cnccn2)CC1 [MLS000082173], which IC50 is on record?
A: > 50 µM

Q: With O=S(=O)(c1ccc(F)cc1)N(CCO)CC(O)Cn1c2ccccc2c2ccccc21 (stereo not drawn) [MLS000088265] as the molecule, how does the IC50 read?
A: > 50 µM

Q: With Cc1ccc(Cl)cc1NC(=O)c1ocnc1C [MLS000092879] as the molecule, how does the IC50 read?
A: > 50 µM

Q: For COc1ccc(N2CCN(C(CNC(=O)Oc3ccccc3)c3cccnc3)CC2)cc1 (stereo not drawn) [MLS000094397], which IC50 is on record?
A: > 50 µM

Q: CC(C)CCN1CC(C(=O)NCc2ccc(F)cc2)CC1=O (stereo not drawn) [MLS000096189] was tested. Which IC50 did it give?
A: > 50 µM

Q: COc1ccc(C(=O)c2oc3ccc(Br)cc3c2NC(C)=O)cc1 [MLS000115316] was tested. Which IC50 did it give?
A: > 50 µM

Q: With Cc1ccc(NC(=O)C2C3CC4OC(=O)C2C4C3)cc1Cl (stereo not drawn) [N-(3-chloro-4-methylphenyl)-5-oxo-4-oxatricyclo[4.2.1.0~3,7~]nonane-9-carboxamide] as the molecule, how does the IC50 read?
A: > 50 µM

Q: For CCN1CCN(C(=O)N[C@@H](C(=O)N[C@@H]2C(=O)N3[C@@H]2SC(C)(C)[C@@H]3C(=O)O)c2ccccc2)C(=O)C1=O [PIPERACILLIN SODIUM SALT], which IC50 is on record?
A: > 50 µM

Q: How did the IC50 turn out when O=C(OC1CCCCC1)c1ccc2c(c1)C1C=CCC1C(C(=O)O)N2 (stereo not drawn) [SMR000019385] was run?
A: > 50 µM

Q: Nc1cc(OC(=O)c2cccs2)nn1S(=O)(=O)c1ccccc1 [SMR000021562] was tested. Which IC50 did it give?
A: 2.38 µM

Q: Which IC50 does the source give for OCCNC1=NCCN1 [SMR000038385] here?
A: > 50 µM

Q: For NC(=O)NC1CCCc2c1[nH]c1ccc(Cl)cc21 (stereo not drawn) [SMR000091683], which IC50 is on record?
A: > 50 µM

Q: For Cc1cc(OC(=O)c2ccccc2)n(CCC#N)n1 [[2-(2-cyanoethyl)-5-methyl-pyrazol-3-yl] benzoate], which IC50 is on record?
A: 1.35 µM

Q: With Nc1ncnc2c1ncn2[C@@H]1O[C@H](CO)[C@@H](O)[C@H]1O [[U-14C]adenosine] as the molecule, how does the IC50 read?
A: > 50 µM

Q: Which IC50 does the source give for COC(=O)CSC1=NC2=C(C(=O)CCC2)C(c2ccc(C)cc2)C1C#N (stereo not drawn) [methyl 2-[[3-cyano-4-(4-methylphenyl)-5-oxo-4,6,7,8-tetrahydro-1H-quinolin-2-yl]sulfanyl]acetate] here?
A: > 50 µM
